In PubChem BioAssay AID330 (DTP/NCI, 2004):
Where “and” joins values, the source holds several entries; their conditions need not be identical. Equal entries are not always repeated. Toxic doses and inconclusive results are not listed.

System: P388 leukemia ip, CD2F1 mice, survival T/C
Assay: NCI In Vivo Anticancer Drug Screen. Data for tumor model P388 Leukemia (intraperitoneal) in CD2F1 (CDF1) mice
Settings: endpoint: median survival time, higher = longer survival
Method in brief: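 Mice carrying the transplanted tumor received test compound or vehicle. Survival was recorded in each group, and the value is the treated-group measurement divided by that of the vehicle-treated control group.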

[1] = dose: 12.5 mg/kg/injection, schedule: Q01DX009 (ip), vehicle: saline with Tween-80
[2] = dose: 25.0 mg/kg/injection, schedule: Q01DX009 (ip), vehicle: saline with Tween-80
[3] = dose: 50.0 mg/kg/injection, schedule: Q01DX009 (ip), vehicle: saline with Tween-80
[4] = dose: 50.0 mg/kg/injection, schedule: Q01DX009 (ip), vehicle: saline
[5] = dose: 50.0 mg/kg/injection, schedule: Q01DX005 (ip), vehicle: saline with Tween-80
[6] = dose: 100.0 mg/kg/injection, schedule: Q01DX005 (ip), vehicle: saline with Tween-80
[7] = dose: 50.0 mg/kg/injection, schedule: Q01DX005 (ip), vehicle: Klucel (hydroxypropylcellulose) (HPC)
[8] = dose: 100.0 mg/kg/injection, schedule: Q01DX005 (ip), vehicle: Klucel (hydroxypropylcellulose) (HPC)
[9] = dose: 200.0 mg/kg/injection, schedule: Q01DX005 (ip), vehicle: Klucel (hydroxypropylcellulose) (HPC)
[10] = dose: 12.5 mg/kg/injection, schedule: Q01DX009 (ip), vehicle: distilled water + Tween-80
[11] = dose: 25.0 mg/kg/injection, schedule: Q01DX009 (ip), vehicle: distilled water + Tween-80
[12] = dose: 50.0 mg/kg/injection, schedule: Q01DX009 (ip), vehicle: distilled water + Tween-80
[13] = dose: 100.0 mg/kg/injection, schedule: Q01DX009 (ip), vehicle: distilled water + Tween-80
[14] = dose: 100.0 mg/kg/injection, schedule: Q01DX009 (ip), vehicle: saline
[15] = dose: 200.0 mg/kg/injection, schedule: Q01DX009 (ip), vehicle: saline
[16] = dose: 50.0 mg/kg/injection, schedule: Q01DX009 (ip), vehicle: Klucel (hydroxypropylcellulose) (HPC)
[17] = dose: 100.0 mg/kg/injection, schedule: Q01DX009 (ip), vehicle: Klucel (hydroxypropylcellulose) (HPC)
[18] = dose: 200.0 mg/kg/injection, schedule: Q01DX009 (ip), vehicle: Klucel (hydroxypropylcellulose) (HPC)
[19] = dose: 25.0 mg/kg/injection, schedule: Q01DX005 (ip), vehicle: saline with Tween-80

Cc1ccc(S(=O)(=O)/N=[Se](\C)c2ccccc2)cc1 (configuration not stated)
T/C (dose: 0.79 mg/kg/injection, schedule: Q01DX009 (ip), vehicle: saline): 95 % of control
T/C (dose: 1.56 mg/kg/injection, schedule: Q01DX009 (ip), vehicle: saline): 97 % of control
T/C (dose: 3.12 mg/kg/injection, schedule: Q01DX009 (ip), vehicle: saline): 93 % of control and 97 % of control
T/C [1]: 96 % of control
T/C [2]: 96 % of control
T/C [3]: 108 % of control
T/C [4]: 114 % of control

CCOC(=O)CCCCCCNC(=S)N1c2c(nc(N)[nH]c2=O)NCC1CNc1ccc(C(=O)NC(CCC(=O)O)C(=O)O)cc1 (configuration not stated)
T/C (dose: 50.0 mg/kg/injection, schedule: Q01DX001 (ip), vehicle: sodium bicarbonate): 100 % of control
T/C (dose: 100.0 mg/kg/injection, schedule: Q01DX001 (ip), vehicle: sodium bicarbonate): 100 % of control
T/C (dose: 200.0 mg/kg/injection, schedule: Q01DX001 (ip), vehicle: sodium bicarbonate): 98 % of control

Cc1ccc2c3c1CCCN3CCC2
T/C (dose: 50.0 mg/kg/injection, schedule: Q04DX003 (ip), vehicle: saline): 112 % of control
T/C (dose: 100.0 mg/kg/injection, schedule: Q04DX003 (ip), vehicle: saline): 112 % of control

CC1CCCN2C(=O)CN(C3CCCCC3)CC(=O)N12 (configuration not stated)
T/C [5]: 100 % of control
T/C [6]: 100 % of control
T/C (dose: 200.0 mg/kg/injection, schedule: Q01DX005 (ip), vehicle: saline with Tween-80): 100 % of control

Nc1ncnc2c1ncn2C1CC(O)C(COC(c2ccccc2)(c2ccccc2)c2ccccc2)O1 (configuration not stated)
T/C [7]: 95 % of control
T/C [8]: 91 % of control
T/C [9]: 86 % of control

c1c2c(cc3c1OCO3)Cc1cc3c(cc1Cc1cc4c(cc1C2)OCO4)OCO3
T/C [3]: 108 % of control
T/C (dose: 100.0 mg/kg/injection, schedule: Q01DX009 (ip), vehicle: saline with Tween-80): 108 % of control
T/C (dose: 200.0 mg/kg/injection, schedule: Q01DX009 (ip), vehicle: saline with Tween-80): 100 % of control

Nc1cc(S(=O)(=O)F)ccc1Cl
T/C (dose: 100.0 mg/kg/injection, schedule: Q04DX003 (ip), vehicle: saline with Tween-80): 100 % of control
T/C (dose: 200.0 mg/kg/injection, schedule: Q04DX003 (ip), vehicle: saline with Tween-80): 106 % of control

NNC(=O)C(=O)Nc1nccs1
T/C (dose: 60.0 mg/kg/injection, schedule: Q01DX005 (ip), vehicle: saline with Tween-80): 94 % of control
T/C (dose: 120.0 mg/kg/injection, schedule: Q01DX005 (ip), vehicle: saline with Tween-80): 95 % of control

CCOC(=O)CCC(CC)NC(=O)c1ccc(N)cc1 (configuration not stated)
T/C [10]: 93 % of control
T/C [11]: 91 % of control
T/C [12]: 98 % of control
T/C [13]: 102 % of control
T/C (dose: 200.0 mg/kg/injection, schedule: Q01DX009 (ip), vehicle: distilled water + Tween-80): 106 % of control

O=c1[nH]ncc(=S)[nH]1
T/C (dose: 25.0 mg/kg/injection, schedule: Q01DX009 (ip), vehicle: suspension in saline): 90 % of control
T/C (dose: 50.0 mg/kg/injection, schedule: Q01DX009 (ip), vehicle: suspension in saline): 103 % of control
T/C (dose: 100.0 mg/kg/injection, schedule: Q01DX009 (ip), vehicle: suspension in saline): 87 % of control

CCCCCCCCCCCC#CC(=O)OC
T/C [4]: 105 % of control
T/C [14]: 103 % of control
T/C [15]: 103 % of control

CC(=O)c1ccc2c(=O)c(C(=O)O)c[nH]c2c1
T/C [1]: 87 % of control
T/C [2]: 91 % of control
T/C [4]: 108 % of control
T/C [14]: 98 % of control
T/C [15]: 104 % of control

CCOC(=O)c1ccc(NC(=O)Nc2nc(C)cs2)cc1
T/C [10]: 104 % of control and 106 % of control
T/C [11]: 99 % of control and 107 % of control
T/C [12]: 109 % of control and 111 % of control
T/C [13]: 118 % of control

Cc1ccc(Nc2ccc(Nc3ccc(C)cc3)c3c2C(=O)c2cc(Cl)c(Cl)cc2C3=O)cc1
T/C [16]: 101 % of control and 93 % of control and 95 % of control
T/C [17]: 111 % of control and 89 % of control and 96 % of control
T/C [18]: 103 % of control and 105 % of control
T/C (dose: 400.0 mg/kg/injection, schedule: Q01DX009 (ip), vehicle: Klucel (hydroxypropylcellulose) (HPC)): 98 % of control

CN(C)N=Nc1cccc(C(N)=O)c1
T/C (dose: 6.25 mg/kg/injection, schedule: Q01DX009 (ip), vehicle: Klucel (hydroxypropylcellulose) (HPC)): 100 % of control
T/C (dose: 12.5 mg/kg/injection, schedule: Q01DX009 (ip), vehicle: Klucel (hydroxypropylcellulose) (HPC)): 110 % of control
T/C (dose: 25.0 mg/kg/injection, schedule: Q01DX009 (ip), vehicle: Klucel (hydroxypropylcellulose) (HPC)): 116 % of control
T/C [16]: 112 % of control
T/C [17]: 93 % of control

O=C(O)CCSSCCCCCS(=O)O
T/C (dose: 50.0 mg/kg/injection, schedule: Q01DX005 (ip), vehicle: saline): 100 % of control
T/C (dose: 100.0 mg/kg/injection, schedule: Q01DX005 (ip), vehicle: saline): 104 % of control
T/C (dose: 200.0 mg/kg/injection, schedule: Q01DX005 (ip), vehicle: saline): 104 % of control

O=c1c2ccccc2nnn1Cc1ccco1
T/C (dose: 1.25 mg/kg/injection, schedule: Q01DX005 (ip), vehicle: saline with Tween-80): 100 % of control
T/C (dose: 12.5 mg/kg/injection, schedule: Q01DX005 (ip), vehicle: saline with Tween-80): 92 % of control
T/C [19]: 100 % of control and 90 % of control
T/C [5]: 104 % of control and 90 % of control
T/C [6]: 92 % of control and 93 % of control

CCNC(=S)N/N=C/c1nccc(-c2ccccc2)c1C
T/C (dose: 25.0 mg/kg/injection, schedule: Q01DX009 (ip), vehicle: saline): 117 % of control and 94 % of control
T/C [4]: 100 % of control and 103 % of control (2×)
T/C [14]: 99 % of control and 108 % of control
T/C [15]: 100 % of control

CCOC(=O)c1cc(-c2ccccc2)c(=O)c(OC)nc1-c1ccccc1
T/C [19]: 108 % of control
T/C [5]: 118 % of control

Nc1ccc(C(=O)Nc2ccc(S(=O)(=O)O)c3cccc(O)c23)cc1
T/C [7]: 109 % of control
T/C [8]: 111 % of control
T/C [9]: 109 % of control

C=C(C)C1CCc2c(C)cc(OC(C)=O)c(C(=O)OC(C)=O)c2C1 (configuration not stated)
T/C (dose: 5.0 mg/kg/injection, schedule: Q01DX005 (ip), vehicle: saline): 107 % of control
T/C (dose: 10.0 mg/kg/injection, schedule: Q01DX005 (ip), vehicle: saline): 105 % of control
T/C (dose: 20.0 mg/kg/injection, schedule: Q01DX005 (ip), vehicle: saline): 105 % of control

CC1CCC2(C)C(CC(O)[C@H](O)C2(C)O)C1(C)CCc1ccoc1 (some centres not stated)
T/C (dose: 3.5 mg/kg/injection, schedule: Q01DX005 (ip), vehicle: Klucel (hydroxypropylcellulose) (HPC)): 108 % of control
T/C (dose: 7.0 mg/kg/injection, schedule: Q01DX005 (ip), vehicle: Klucel (hydroxypropylcellulose) (HPC)): 103 % of control
T/C (dose: 14.0 mg/kg/injection, schedule: Q01DX005 (ip), vehicle: Klucel (hydroxypropylcellulose) (HPC)): 106 % of control
T/C (dose: 25.0 mg/kg/injection, schedule: Q01DX005 (ip), vehicle: Klucel (hydroxypropylcellulose) (HPC)): 101 % of control
T/C (dose: 28.0 mg/kg/injection, schedule: Q01DX005 (ip), vehicle: Klucel (hydroxypropylcellulose) (HPC)): 104 % of control
T/C [7]: 92 % of control
T/C [8]: 97 % of control

[Cl][Pt+2][Cl].[NH-]c1ccccc1[NH-]
T/C (dose: 6.25 mg/kg/injection, schedule: Q04DX002 (ip), vehicle: saline with Tween-80): 163 % of control
T/C (dose: 12.5 mg/kg/injection, schedule: Q04DX002 (ip), vehicle: saline with Tween-80): 193 % of control
T/C (dose: 12.5 mg/kg/injection, schedule: Q04DX002 (ip), vehicle: saline): 167 % of control
T/C (dose: 25.0 mg/kg/injection, schedule: Q04DX002 (ip), vehicle: saline with Tween-80): 110 % of control

CC1(C)CCCC12C=NCC2 (configuration not stated)
T/C (dose: 6.25 mg/kg/injection, schedule: Q01DX009 (ip), vehicle: saline with Tween-80): 99 % of control
T/C [1]: 95 % of control
T/C [2]: 102 % of control
T/C [3]: 101 % of control

CCC(NC(C)C)C(O)c1ccc(O)c2[nH]c(=O)ccc12 (configuration not stated)
T/C [16]: 104 % of control
T/C [17]: 99 % of control
T/C [18]: 96 % of control
